Patent publication US20120329803A1, “Dihydropteridinones, method for production and use thereof” (BOEHRINGER INGELHEIM INTERNATIONAL GMBH, priority 2010, published 2012)
“And” between values parts separate entries of the source, which are not always exact repeats. Equal entries are not always repeated. Where two headings read alike, the source gives them in different places.

Columns and labels:
[1] = test system: NCI-H460 human lung carcinoma cells; experiment: Alamar Blue cell proliferation assay, NCI-H460; assay type: cell-based; conditions: 72 h
Experimental: (§1) Kinase assays are performed using full-length recombinant Plk1 enzyme produced in a baculovirus expression system and casein from bovine milk as a substrate. Results represent the means of 2 independent experiments with each data point measured in duplicate. NCI-H460 human non-small cell lung cancer and HCT 116 human colon carcinoma cell lines are used in Alamar Blue™ based proliferation assays. Results represent the means of 3 dose titrations for each cell line with each data point measured in duplicate. Two independent kinase assay experiments are carried out to determine the inhibitory activity of compound (12B) on the Plk1 enzyme. 7 concentrations of compound (12B) are used and each concentration is tested in duplicate measurements.
(§2) For each cell line a proliferation assay experiment is carried out to determine the EC50 values in triplicate. 12 concentrations of each compound are used and each concentration is tested in duplicate measurements.
(§3) HCT 116 human colorectal carcinoma (ATCC CCL 247) and NCI-H460 human lung carcinoma (ATCC HTB-177) cells are used in an Alamar Blue™ based proliferation assay.
(§4) The Alamar Blue™ assay is designed to quantitatively measure the proliferation of cells by incorporating a fluorometric/colorimetric growth indicator that is based on the detection of metabolic activity in viable cells.
(§5) HCT 116 and NCI-H460 cells are grown in IMDM medium containing 10% FCS and 2 mM L-glutamine. They are maintained at 37° C. and 5% CO2 in a humidified atmosphere with a split ratio of 1:5. For proliferation assays in the 96-well format, penicillin-streptomycin is added to the medium at a final concentration of 100 u/ml penicillin and 100 μg/ml streptomycin.
(§6) On day one of the experiment, 1000 cells in 180 μl medium are seeded into each well of a sterile 96-well flat-bottom plate. The plates are kept in the incubator overnight. The compounds are dissolved in DMSO at a concentration of 1000 μM. On day two of the experiment, 12 serial dilutions (1:3) of the compounds are prepared in medium containing 0.1% DMSO. 20 μl of the dilutions are added to each well to yield a final volume of 200 μl per well. As a control, medium containing 0.1% DMSO is added to the designated wells. The cells are then incubated for 72 h. After this incubation period, 20 μl of Alamar Blue™ is added to each well. After 6 h of incubation, the plates are measured in a fluorescence spectrophotometer (excitation 531 nm, emission 595 nm, slits 15, integrate time 0.1). All data points are measured in duplicates.
(§7) The mean value from the duplicates is taken and the background is subtracted. The “0.1% DMSO value” (the mean value obtained from wells containing cells plus 0.1% DMSO containing medium) is taken as “100% control”. […]

[2] = test system: HCT 116 human colorectal carcinoma cells; experiment: Alamar Blue cell proliferation assay, HCT 116; assay type: cell-based; conditions: HCT 116 cells, 72 h
Experimental: as §1, §2, §3, §4, §5, §6, §7

hERG channel = biological target: T1, hERG channel (Homo sapiens, UniProt Q12809); experiment: hERG channel assay (whole-cell patch clamp); assay type: cell-based; conditions: HEK 293 cells stably transfected with hERG; 0.3, 1, 3, 10 μM tested; read-out: residual currents value (half-inhibitory concentration from fit to residual hERG current)
T1 construct: expressed in transfected cells; host or cells: HEK293 cells, stably transfected; cDNA from M. Sanguinetti, University of Utah
T1 sequence (Q12809 whole entry): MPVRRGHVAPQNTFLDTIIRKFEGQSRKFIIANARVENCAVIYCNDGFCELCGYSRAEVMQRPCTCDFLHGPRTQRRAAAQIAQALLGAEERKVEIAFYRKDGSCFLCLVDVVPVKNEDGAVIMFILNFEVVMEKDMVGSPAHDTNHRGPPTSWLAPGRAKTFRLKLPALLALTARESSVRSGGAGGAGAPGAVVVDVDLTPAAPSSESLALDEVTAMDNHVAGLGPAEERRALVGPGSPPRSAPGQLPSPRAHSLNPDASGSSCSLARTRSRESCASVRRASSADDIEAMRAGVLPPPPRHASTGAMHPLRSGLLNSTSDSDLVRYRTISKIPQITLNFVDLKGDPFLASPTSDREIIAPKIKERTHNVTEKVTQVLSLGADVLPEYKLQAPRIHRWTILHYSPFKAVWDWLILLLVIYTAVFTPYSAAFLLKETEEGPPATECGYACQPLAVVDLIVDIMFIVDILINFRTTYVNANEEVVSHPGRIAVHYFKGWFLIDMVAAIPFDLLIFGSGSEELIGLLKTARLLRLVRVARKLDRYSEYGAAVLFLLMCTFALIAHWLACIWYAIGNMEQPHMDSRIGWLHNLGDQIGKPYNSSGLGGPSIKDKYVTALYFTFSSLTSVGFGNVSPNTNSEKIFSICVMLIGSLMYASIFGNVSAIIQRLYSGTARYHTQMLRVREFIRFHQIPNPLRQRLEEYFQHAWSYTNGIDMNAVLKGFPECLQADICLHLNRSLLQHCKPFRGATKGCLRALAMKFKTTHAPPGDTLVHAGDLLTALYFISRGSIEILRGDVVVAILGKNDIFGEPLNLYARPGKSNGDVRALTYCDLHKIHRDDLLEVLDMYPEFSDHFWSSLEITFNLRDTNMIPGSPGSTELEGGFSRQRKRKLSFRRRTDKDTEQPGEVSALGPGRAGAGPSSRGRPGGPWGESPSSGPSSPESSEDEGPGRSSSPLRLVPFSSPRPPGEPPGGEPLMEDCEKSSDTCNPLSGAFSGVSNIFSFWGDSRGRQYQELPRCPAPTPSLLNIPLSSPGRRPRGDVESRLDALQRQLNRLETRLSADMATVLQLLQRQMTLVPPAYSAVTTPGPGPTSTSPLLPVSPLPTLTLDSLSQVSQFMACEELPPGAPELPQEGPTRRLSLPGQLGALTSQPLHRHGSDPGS
Experimental: HEK (human embryonic kidney) 293 cells are stably transfected with hERG cDNA (obtained courtesy of M. Sanguinetti, University of Utah). Cells determined for use in patch clamp experiments are plated on glass coverslips in 24 well plates and are cultivated without antibiotic during this time.
Coverslips are placed at the bottom of a 2 mL perfusion chamber mounted on the stage of an inverted microscope. Cells are superfused with a bath solution containing (mM): NaCl (137), KCl (4.0), MgCl2 (1.0), CaCl2 (1.8), Glucose (10), HEPES (10), pH 7.4 with NaOH. […]
Membrane currents are recorded using an EPC-10 or equivalent patch clamp amplifier (HEKA Electronics, Lambrecht, FRG) using the whole-cell configuration of the patch-clamp technique. hERG-mediated inactivating tail currents are elicited using a brief hyperpolarising pulse after channel inactivation at a depolarised potential.
Four concentrations of the compound of formula (12B) according to the present invention (0.3, 1, 3, 10 μM) are applied on different cells. A steady state level of baseline current is measured prior to the application of the test article. […]
Peak current amplitudes are measured for each hyperpolarising step. […] Residual currents (I/Io) are calculated for each cell as the fraction of actual average peak current and average baseline peak current. Current inhibition is expressed as (1−I/I0)*100%. […]

human Plk1 enzyme = biological target: T2, human Plk1 enzyme (Homo sapiens, UniProt P53350); experiment: Plk1 low enzyme inhibition (kinase) assay; assay type: biochemical; conditions: casein substrate, 7.5 μM ATP
T2 construct: The full-length coding region of the human Plk1 enzyme (residues 1-603); made in house; host or cells: Sf21 insect cells, baculovirus (pAcG2T vector, BD Biosciences)
T2 sequence (P53350 whole entry, the tested form may be a part): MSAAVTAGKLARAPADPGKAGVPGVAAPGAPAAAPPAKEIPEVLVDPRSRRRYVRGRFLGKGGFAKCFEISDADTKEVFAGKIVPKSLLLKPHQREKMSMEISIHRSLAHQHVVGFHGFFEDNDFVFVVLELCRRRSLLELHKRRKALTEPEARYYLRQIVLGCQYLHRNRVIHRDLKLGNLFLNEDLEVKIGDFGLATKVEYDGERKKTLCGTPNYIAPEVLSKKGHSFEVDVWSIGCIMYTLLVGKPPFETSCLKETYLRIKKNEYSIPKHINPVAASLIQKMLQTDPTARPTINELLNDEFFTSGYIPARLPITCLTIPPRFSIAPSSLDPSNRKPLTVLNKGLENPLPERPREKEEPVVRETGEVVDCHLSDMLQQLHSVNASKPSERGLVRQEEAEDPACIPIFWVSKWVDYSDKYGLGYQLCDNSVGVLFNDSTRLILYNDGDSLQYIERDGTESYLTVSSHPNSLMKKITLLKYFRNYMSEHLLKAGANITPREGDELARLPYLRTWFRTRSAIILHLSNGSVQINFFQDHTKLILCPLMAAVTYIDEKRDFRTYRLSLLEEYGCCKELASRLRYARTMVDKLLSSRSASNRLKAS
Experimental: as §1
The compound is dissolved in DMSO at a concentration of 10 mM. For the proliferation assay and the first kinase assay the compound is freshly dissolved. For the second kinase assay a 10 mM stock solution in DMSO is used.
A baculoviral expression system is used to generate full-length recombinant Plk1 enzyme for the assay. Casein from bovine milk is used as a substrate. All other reagents are from the highest grade of purity commercially available. […]

[3] = measurement 1, read-out: Measurement 1 EC50
[4] = measurement 2, read-out: Measurement 2 EC50
[5] = measurement 3, read-out: Measurement 3 EC50

EC50 ([1]; mean of 3, read-out: Mean EC50): 430 nM
EC50 [1, 3]: 517 nM
EC50 [1, 4]: 471 nM
EC50 [1, 5]: 302 nM
EC50 ([2]; mean of 3, read-out: Mean EC50): 273 nM
EC50 [2, 3]: 311 nM
EC50 [2, 4]: 335 nM
EC50 [2, 5]: 174 nM
IC50 (human Plk1 enzyme; mean of 2 independent experiments, read-out: Mean IC50): 8 nM
IC50 (human Plk1 enzyme; single experiments (experiment number 1, 2), read-out: IC50): 8.1 nM and 7.9 nM
Compound: CCC1(O)C(=O)N(C)c2cnc(Nc3ccc(C(=O)N[C@H]4CC[C@H](N5CCN(CC6CC6)CC5)CC4)cc3OC)nc2N1C(C)C (some centres unmarked) [compound 12B]
IC50 (hERG channel): 9500 nM
